This is an account of results in ChEMBL document CHEMBL4184159, “Delphinidin inhibits BDNF-induced migration and invasion in SKOV3 ovarian cancer cells” (2017).

Assay [1] relates to SK-OV-3. The experiment in a line: Antiproliferative activity against human SKOV3 cells at 5 uM after 24 hrs by CCK-8 assay. It is filed as functional.
The test system of assay [2] is SK-OV-3. The experiment in a line: Downregulation of BDNF-induced MMP9 mRNA expression in human SKOV3 cells after 24 hrs by qRT-PCR analysis. It is filed as functional, cell-based. Background: Quantitative PCR measures a nucleic acid by following its amplification.
Assay [3] relates to SK-OV-3. The assay can be described thus: Antiproliferative activity against human SKOV3 cells at 75 uM after 24 hrs by CCK-8 assay. It is filed as functional. On the technique in general: Tetrazolium dyes change colour on reduction, which living cells bring about.
The target in assay [4] is RAC-alpha serine/threonine-protein kinase (Homo sapiens) (UniProt P31749). The assay can be described thus: Inhibition of BDNF-induced AKT phosphorylation in human SKOV3 cells after 24 hrs by Western blot analysis. The class given is cell-based. (In western blotting, separated proteins are transferred to a membrane and probed.)
Assay [5] has as its system SK-OV-3. The experiment in a line: Antimigratory activity against human SKOV3 cells assessed as inhibition of BDNF-induced cell migration after 24 hrs by scratch wound healing assay. The class given is functional, cell-based.
The subject of assay [6] is SK-OV-3. The experiment in a line: Antiproliferative activity against human SKOV3 cells at 10 uM after 24 hrs by CCK-8 assay. It is filed as functional.
The test system of assay [7] is SK-OV-3. The experiment in a line: Downregulation of BDNF-induced MMP2 mRNA expression in human SKOV3 cells after 24 hrs by qRT-PCR analysis. The class given is functional, cell-based.
Assay [8] has as its system SK-OV-3. The assay can be described thus: Inhibition of BDNF-induced invasion in human SKOV3 cells after 24 hrs in by matrigel invasion assay. The class given is functional, cell-based.
Assay [9] relates to SK-OV-3. The assay can be described thus: Antiproliferative activity against human SKOV3 cells at 200 uM after 24 hrs by CCK-8 assay. The class given is functional, cell-based.
Assay [10] deals with SK-OV-3. The assay can be described thus: Antiproliferative activity against human SKOV3 cells at 50 uM after 24 hrs by CCK-8 assay. The class given is functional.
The species entered for assay [11] is Homo sapiens. The assay can be described thus: Inhibition of BDNF-induced NFkappaB nuclear translocation in human SKOV3 cells at 50 to 75 uM after 24 hrs by Western blot analysis. The class given is cell-based.
Assay [12] deals with SK-OV-3. The experiment in a line: Antiproliferative activity against human SKOV3 cells at 100 uM after 24 hrs by CCK-8 assay. It is filed as functional, cell-based.
Assay [13] has as its system SK-OV-3. The experiment in a line: Antimigratory activity against human SKOV3 cells assessed as inhibition of BDNF-induced cell migration at 20 uM after 24 hrs by scratch wound healing assay. The class given is functional, cell-based.
The subject of assay [14] is SK-OV-3. The experiment in a line: Inhibition of BDNF-induced invasion in human SKOV3 cells at 20 uM after 24 hrs in by matrigel invasion assay. It is filed as functional, cell-based.

Active and inactive are the calls of the source. The calls are words filed in the database; no cut-off is given here. Bounds are passed on as bounds.

Chain of RAC-alpha serine/threonine-protein kinase (Homo sapiens) (P31749 whole entry): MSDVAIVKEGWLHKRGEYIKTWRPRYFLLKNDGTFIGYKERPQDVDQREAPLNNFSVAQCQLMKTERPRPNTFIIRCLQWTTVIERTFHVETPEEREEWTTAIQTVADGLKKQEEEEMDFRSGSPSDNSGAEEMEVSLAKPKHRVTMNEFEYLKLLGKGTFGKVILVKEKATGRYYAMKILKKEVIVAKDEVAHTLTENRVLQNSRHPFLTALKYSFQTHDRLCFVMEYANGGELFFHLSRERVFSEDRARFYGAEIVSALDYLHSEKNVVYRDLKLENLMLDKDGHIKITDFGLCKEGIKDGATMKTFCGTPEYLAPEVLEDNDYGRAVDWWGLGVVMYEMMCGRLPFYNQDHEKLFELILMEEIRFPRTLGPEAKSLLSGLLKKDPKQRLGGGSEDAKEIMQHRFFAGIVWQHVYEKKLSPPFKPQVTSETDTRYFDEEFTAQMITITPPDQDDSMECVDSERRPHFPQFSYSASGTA

Turning to `Oc1cc(O)c2cc(O)c(-c3cc(O)c(O)c(O)c3)[o+]c2c1.[Cl-]` [DELPHINIDIN CHLORIDE], the Activity was above 98% in [1]; “Dose-dependent effect” in assay [2]; above 98% in assay [3]; “Dose-dependent effect” in assay [5]; above 98% in assay [6]; “Dose-dependent effect” in [7]. The compound further displayed an Activity in assay [10] above 98%. In addition, the inhibition result in assay [4] and in [8] was “Dose-dependent effect” throughout. Further, the outcome in assay [9] and in assay [12] was Active. Moreover, in [11], the inhibition result is “Active”.

Regarding `O=c1cc(N2CCOCC2)oc2c(-c3ccccc3)cccc12`, the inhibition result in [13] and in assay [14] was “Active” each time. In [4], the inhibition result is “Dose-dependent effect”.
